Measured values reported in patent publication US6620815B1, “Oxazolidinones and uses thereof” (Synaptic Pharmaceutical Corporation, priority 1997, dated 2003).
Counter-ions that a name gives are not always drawn.

Assays:
[1] = target: T1, cloned human α1A receptor (Homo sapiens, UniProt P35348); assay: Radioligand binding assay, [3H] prazosin displacement, cloned human α1A receptor; details: [3H] prazosin 0.5 nM, membrane preparations of transfected LM(tk-) cells; read-out: hα1A Ki
T1 sequence (P35348 1-466): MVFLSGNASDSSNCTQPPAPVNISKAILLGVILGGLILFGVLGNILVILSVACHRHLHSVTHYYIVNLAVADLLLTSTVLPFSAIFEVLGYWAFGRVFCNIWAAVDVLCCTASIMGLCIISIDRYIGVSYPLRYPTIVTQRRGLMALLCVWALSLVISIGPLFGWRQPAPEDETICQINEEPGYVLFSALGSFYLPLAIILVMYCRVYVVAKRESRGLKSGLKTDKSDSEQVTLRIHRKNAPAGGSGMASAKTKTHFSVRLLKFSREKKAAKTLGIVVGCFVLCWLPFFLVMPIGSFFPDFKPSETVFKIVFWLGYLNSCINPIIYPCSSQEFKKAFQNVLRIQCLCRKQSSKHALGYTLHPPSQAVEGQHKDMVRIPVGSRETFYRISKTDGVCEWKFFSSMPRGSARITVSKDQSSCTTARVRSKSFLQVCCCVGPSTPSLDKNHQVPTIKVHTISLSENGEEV
Description: (§1) These cell lines were prepared by transfecting the cloned cDNA or cloned genomic DNA or constructs containing both genomic DNA and cDNA encoding the human α-adrenergic receptors as follows:
The construct involved ligating three partial overlapping fragments: a 5′ 0.6 kb HincII genomic clone, a central 1.8 EcoRI hippocampal cDNA clone, and a 3′ 0.6 Kb PstI genomic clone. The hippocampal cDNA fragment overlaps with the 5′ and 3′ genomic clones so that the HincII and PstI sites at the 5′ and 3′ ends of the cDNA clone, respectively, were utilized for ligation. This full-length clone was cloned into the KpnI site of the expression vector, using the 5′ and 3′ KpnI sites of the fragment, derived from vector (i.e., pBluescript) and 3′-untranslated sequences, respectively. Stable cell lines were selected as described above.
(§2) Transfected cells from culture flasks were scraped into 5 ml of 5 mM Tris-HCl, 5 mM EDTA, pH 7.5, and lysed by sonication. The cell lysates were centrifuged at 1000 rpm for 5 min at 4° C., and the supernatant was centrifuged at 30,000×g for 20 min at 4° C. The pellet was suspended in 50 mM Tris-HCl, 1 mM MgCl2, and 0.1% ascorbic acid at pH 7.5. Binding of the α1 antagonist [^3H] prazosin (0.5 nM, specific activity 76.2 Ci/mmol) to membrane preparations of LM(tk−) cells was done in a final volume of 0.25 ml and incubated at 37° C. for 20 min. Nonspecific binding was determined in the presence of 10 μM phentolamine. The reaction was stopped by filtration through GF/B filters using a cell harvester.

[2] = target: T2, cloned human α1D receptor (Homo sapiens, UniProt P25100); assay: Radioligand binding assay, [3H] prazosin displacement, cloned human α1D receptor; details: [3H] prazosin 0.5 nM, membrane preparations of transfected LM(tk-) cells; read-out: hα1D Ki
T2 sequence (P25100 1-572): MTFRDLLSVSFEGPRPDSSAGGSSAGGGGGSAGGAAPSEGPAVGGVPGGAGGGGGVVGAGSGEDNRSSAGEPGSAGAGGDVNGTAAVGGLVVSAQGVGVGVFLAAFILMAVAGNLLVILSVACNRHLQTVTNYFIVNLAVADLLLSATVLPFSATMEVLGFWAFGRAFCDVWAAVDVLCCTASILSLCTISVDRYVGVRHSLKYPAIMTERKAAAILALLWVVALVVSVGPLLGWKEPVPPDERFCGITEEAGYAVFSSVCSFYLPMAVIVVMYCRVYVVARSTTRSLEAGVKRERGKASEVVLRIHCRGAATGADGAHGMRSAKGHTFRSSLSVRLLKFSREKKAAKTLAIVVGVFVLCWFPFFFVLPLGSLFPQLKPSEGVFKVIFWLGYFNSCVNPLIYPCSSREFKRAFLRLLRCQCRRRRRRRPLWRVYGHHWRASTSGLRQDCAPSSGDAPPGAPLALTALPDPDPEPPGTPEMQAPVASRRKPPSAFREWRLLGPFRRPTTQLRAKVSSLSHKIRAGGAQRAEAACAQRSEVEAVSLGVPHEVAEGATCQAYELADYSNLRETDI
Description: as §1
The cells were grown, in a controlled environment (37° C., 5% CO2), as monolayers in Dulbecco's modified Eagle's Medium (GIBCO, Grand Island, N.Y.) containing 25 mM glucose and supplemented with 10% bovine calf serum, 100 units/ml penicillin g, and 100 μg/ml streptomycin sulfate.
as §2

[3] = target: T3, cloned human α1B receptor (Homo sapiens, UniProt P35368); assay: Radioligand binding assay, [3H] prazosin displacement, cloned human α1B receptor; details: [3H] prazosin 0.5 nM, membrane preparations of transfected LM(tk-) cells; read-out: hα1B Ki
T3 sequence (P35368 1-520): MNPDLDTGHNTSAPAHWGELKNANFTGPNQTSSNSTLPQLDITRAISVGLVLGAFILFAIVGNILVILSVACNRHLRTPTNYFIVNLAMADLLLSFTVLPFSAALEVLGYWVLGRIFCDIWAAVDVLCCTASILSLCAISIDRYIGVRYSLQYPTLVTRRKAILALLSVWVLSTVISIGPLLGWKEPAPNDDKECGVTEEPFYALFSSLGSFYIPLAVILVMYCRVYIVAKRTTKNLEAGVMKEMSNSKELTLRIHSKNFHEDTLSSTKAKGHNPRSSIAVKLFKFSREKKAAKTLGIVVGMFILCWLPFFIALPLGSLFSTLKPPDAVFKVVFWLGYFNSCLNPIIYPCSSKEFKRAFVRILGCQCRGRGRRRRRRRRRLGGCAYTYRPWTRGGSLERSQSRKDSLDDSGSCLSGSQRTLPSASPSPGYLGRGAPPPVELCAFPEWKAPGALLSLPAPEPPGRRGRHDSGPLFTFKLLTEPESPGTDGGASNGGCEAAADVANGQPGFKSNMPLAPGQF
Description: as §1
The construct involved ligating the full-length containing EcoRI brainstem cDNA fragment from λ ZapII into the expression vector. Stable cell lines were selected as described above.
as §2

## Cl.N#CC1(c2ccccc2)CCN(CCCNC(=O)N2C(=O)OCC2(c2ccccc2)c2ccccc2)CC1
other
  melting point: 139 to 141 °C

## CC(=O)OC1(c2ccccc2)CCN(CCCNC(=O)N2C(=O)OC(C)(C)C2c2ccc(F)c(F)c2)CC1.Cl (stereo not drawn)
other
  melting point: 116 to 118 °C

## CC1(C)OC(=O)N(C(=O)NCC(F)CN2CCC(C#N)(c3ccccc3)CC2)C1c1ccc(F)c(F)c1.Cl (stereo not drawn)
other
  melting point: 120 to 122 °C

## Cl.Cl.O=C1OCC(c2ccc(F)c(F)c2)N1C(=O)N1CCCC(CN2CCC(c3ccccn3)CC2)C1 (stereo not drawn)
other
  melting point: 176 to 178 °C

## O=C(NCCCN1CCC(c2ccccc2)(c2ccco2)CC1)N1C(=O)OCC1c1ccc(F)c(F)c1 (stereo not drawn) (as salt: HCl)
other
  melting point: 149 to 151 °C

## N#CC1(c2ccccc2)CCC(N2CCN(C(=O)N3C(=O)OCC3c3ccc(F)c(F)c3)CC2)CC1 (stereo not drawn) (as salt: HCl) [Example 34, 4-{4-[4-(3,4-Difluoro-phenyl)-2-oxo-oxazolidine-3-carbonyl]-piperazin-1-yl}-1-phenyl-cyclohexanecarbonitrile]
other
  melting point: 148 to 151 °C

## COc1ccccc1N1CCN(CCCCCN2C(=O)OCC2c2ccc(F)c(F)c2)CC1 (stereo not drawn) (as salt: hydrochloride) [Example 2, 4-(3,4-Difluorophenyl)-3-{5-[4-(2-methoxy-phenyl)-piperazin-1-yl]-pentyl}-oxazolidin-2-one]
other
  melting point: 174 to 178 °C

## COC(=O)C1(c2ccccc2)CCN(CCNC(=O)N2C(=O)OCC2c2ccc(F)c(F)c2)CC1 (stereo not drawn) (as salt: hydrochloride) [Example 21, 4-(3,4-Difluorophenyl)-2-oxo-oxazolidine-3-carboxylic Acid{2-[4-phenylpiperidine-4-(carboxylic Acid Methyl Ester)]ethyl}amide]
other
  melting point: 80 to 85 °C

## COc1ccccc1N1CCN(CCCCCN2C(=O)OCC2c2ccc(F)c(F)c2)CC1 (stereo not drawn) [Example 2, 4-(3,4-Difluorophenyl)-3-{5-[4-(2-methoxy-phenyl)-piperazin-1-yl]-pentyl}-oxazolidin-2-one]
[1]
  Ki: 0.5 nM
[2]
  Ki: 11 nM
[3]
  Ki: 21 nM

## COC(=O)C1(c2ccccc2)CCN(CCNC(=O)N2C(=O)OCC2c2ccc(F)c(F)c2)CC1 (stereo not drawn) [Example 21, 4-(3,4-Difluorophenyl)-2-oxo-oxazolidine-3-carboxylic Acid{2-[4-phenylpiperidine-4-(carboxylic Acid Methyl Ester)]ethyl}amide]
[1]
  Ki: 21 nM
[2]
  Ki: 2460 nM
[3]
  Ki: 891 nM

## CC1(C)OC(=O)N(C(=O)NCC(O)CN2CCC(C#N)(c3ccccc3)CC2)C1c1ccc(F)c(F)c1.Cl (stereo not drawn) [Example 28, N3-[3-(4-Cyano-4-phenylpiperidino)-2-hydroxypropyl]-4-(3,4-difluorophenyl)-5,5-dimethyl-2-oxo-oxazolidine-3-carboxamide Hydrochloride]
[1]
  Ki: 0.7 nM
[2]
  Ki: 3660 nM
other
  melting point: 135 to 137 °C
[3]
  Ki: 4010 nM
